Results reported in ChEMBL document CHEMBL4732109, “Structural modifications in the distal, regulatory region of histamine H receptor antagonists leading to the identification of a potent anti-obesity agent” (Eur J Med Chem, 2021).
The source made the active and inactive calls. The calls are words filed in the database; no cut-off is given here.

Legend:
Cytochrome P450 3A4 = Cytochrome P450 3A4 (Homo sapiens, UniProt P08684); experiment: Inhibition of recombinant CYP3A4 (unknown origin) at 10 uM measured after 30 mins by luciferase reporter gene assay; format: ADME; settings: recombinant enzyme, 0.5 h
Histamine H3 receptor [1] = target: T1, Histamine H3 receptor (Homo sapiens, UniProt Q9Y5N1); experiment: Displacement of [3H]UR-PI294 from human SP-FLAG-tagged H3R expressed in HEK293T cells measured after 60 to 120 mins by liquid scintillation counting analysis; format: cell-based
Histamine H1 receptor = Histamine H1 receptor (Homo sapiens, UniProt P35367); experiment: Displacement of [3H]mepyramine from human H1R expressed in Sf9 cell membranes co-expressing RGS4 measured after 60 mins by scintillation counting analysis; parameters: species or system Membrane
Histamine H3 receptor [2] = target: T1, Histamine H3 receptor; experiment: Binding affinity to human H3R
Rattus norvegicus [3] = experiment: Anorectic activity in Wistar rat model of diet induced obesity assessed as reduction in amount of peritoneal fat at 1 mg/kg/day, ip administered for 28 days; format: functional, organism-based; settings: time 28.0 day
[4] = Effect on spontaneous locomotor activity in Wistar rat model of diet induced obesity at 1 mg/kg/day, ip administered for 27 days; format: ADME, organism-based; settings: in vivo, 648 h, time 27 day
Rattus norvegicus [5] = experiment: Anorectic activity in Wistar rat model of diet induced obesity assessed as reduction in total cholesterol level at 1 mg/kg/day, ip administered for 28 days measured on day 29 by spectrophotometric method; format: functional, organism-based; settings: time 28.0 day
Rattus norvegicus [6] = experiment: Anorectic activity in Wistar rat model of diet induced obesity assessed as increase in HDL level at 1 mg/kg/day, ip administered for 28 days measured on day 29 by spectrophotometric method; format: functional, organism-based; settings: time 28.0 day
Histamine H4 receptor = Histamine H4 receptor (Homo sapiens, UniProt Q9H3N8); experiment: Binding affinity to human H4R
Rattus norvegicus [7] = experiment: Anorectic activity in Wistar rat model of diet induced obesity assessed as reduction in body weight at 1 mg/kg/day, ip administered for 28 days; format: functional, organism-based; settings: time 28.0 day
Rattus norvegicus [8] = experiment: Anorectic activity in Wistar rat model of diet induced obesity assessed as reduction in triglyceride level at 1 to 10 mg/kg/day, ip administered for 28 days measured on day 29 by spectrophotometric method; format: functional, organism-based; settings: dose 1-10 mg/kg/day, time 28.0 day
[9] = Effect on spontaneous locomotor activity in Wistar rat model of diet induced obesity at 1 to 10 mg/kg/day, ip administered for 27 days; format: ADME, organism-based; settings: in vivo, 648 h, dose 1-10 mg/kg/day, time 27 day
Rattus norvegicus [10] = experiment: Anorectic activity in Wistar rat model of diet induced obesity assessed as reduction in calorie intake at 10 mg/kg/day, ip administered for 28 days; format: functional, organism-based; settings: time 28.0 day
Rattus norvegicus [11] = experiment: Anorectic activity in Wistar rat model of diet induced obesity assessed as reduction in total cholesterol level at 10 mg/kg/day, ip administered for 28 days measured on day 29 by spectrophotometric method; format: functional, organism-based; settings: time 29.0 day
Rattus norvegicus [12] = experiment: Anorectic activity in Wistar rat model of diet induced obesity assessed as reduction in plasma glucose level at 1 mg/kg/day, ip administered for 28 days measured on day 29 by spectrophotometric method; format: functional, organism-based; settings: time 28.0 day
Rattus norvegicus [13] = experiment: Anorectic activity in Wistar rat model of diet induced obesity assessed as reduction in calorie intake at 1 mg/kg/day, ip administered for 28 days; format: functional, organism-based; settings: time 28.0 day
Rattus norvegicus [14] = experiment: Anorectic activity in Wistar rat model of diet induced obesity assessed as reduction in plasma glucose level at 10 mg/kg/day, ip administered for 28 days measured on day 29 by spectrophotometric method; format: functional, organism-based; settings: time 29.0 day
Rattus norvegicus [15] = experiment: Anorectic activity in Wistar rat model of diet induced obesity assessed as increase in HDL level at 10 mg/kg/day, ip administered for 28 days measured on day 29 by spectrophotometric method; format: functional, organism-based; settings: time 29.0 day
Rattus norvegicus [16] = experiment: Anorectic activity in Wistar rat model of diet induced obesity assessed as reduction in body weight at 10 mg/kg/day, ip administered for 28 days; format: functional, organism-based; settings: time 28.0 day
Rattus norvegicus [17] = experiment: Anorectic activity in Wistar rat model of diet induced obesity assessed as reduction in amount of peritoneal fat at 10 mg/kg/day, ip administered for 28 days; format: functional, organism-based; settings: time 28.0 day

T1 sequence (Q9Y5N1 whole entry): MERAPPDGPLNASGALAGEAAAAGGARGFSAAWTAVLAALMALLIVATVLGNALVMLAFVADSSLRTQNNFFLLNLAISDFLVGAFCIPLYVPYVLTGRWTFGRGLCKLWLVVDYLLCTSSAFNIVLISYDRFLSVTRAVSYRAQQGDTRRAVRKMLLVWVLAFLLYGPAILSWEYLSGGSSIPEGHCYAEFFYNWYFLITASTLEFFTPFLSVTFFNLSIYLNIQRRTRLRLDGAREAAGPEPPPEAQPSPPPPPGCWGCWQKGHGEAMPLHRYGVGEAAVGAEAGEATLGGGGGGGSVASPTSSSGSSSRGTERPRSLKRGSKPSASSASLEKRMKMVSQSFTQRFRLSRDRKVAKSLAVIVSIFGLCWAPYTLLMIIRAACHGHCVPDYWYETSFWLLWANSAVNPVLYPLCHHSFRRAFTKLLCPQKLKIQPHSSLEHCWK
Chain of Cytochrome P450 3A4 (P08684 whole entry): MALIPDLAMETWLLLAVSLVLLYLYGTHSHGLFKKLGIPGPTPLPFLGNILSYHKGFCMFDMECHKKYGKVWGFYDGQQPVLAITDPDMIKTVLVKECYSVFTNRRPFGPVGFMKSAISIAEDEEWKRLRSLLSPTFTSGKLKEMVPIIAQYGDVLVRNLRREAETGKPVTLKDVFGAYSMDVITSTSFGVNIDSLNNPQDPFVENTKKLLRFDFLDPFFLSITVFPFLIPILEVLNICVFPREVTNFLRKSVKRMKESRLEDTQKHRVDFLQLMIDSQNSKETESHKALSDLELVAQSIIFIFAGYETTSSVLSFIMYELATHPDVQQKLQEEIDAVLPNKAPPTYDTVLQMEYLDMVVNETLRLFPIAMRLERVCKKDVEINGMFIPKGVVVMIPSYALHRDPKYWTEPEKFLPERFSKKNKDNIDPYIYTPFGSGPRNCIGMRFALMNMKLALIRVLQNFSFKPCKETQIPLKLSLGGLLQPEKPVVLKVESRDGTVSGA
Chain of Histamine H1 receptor (P35367 whole entry): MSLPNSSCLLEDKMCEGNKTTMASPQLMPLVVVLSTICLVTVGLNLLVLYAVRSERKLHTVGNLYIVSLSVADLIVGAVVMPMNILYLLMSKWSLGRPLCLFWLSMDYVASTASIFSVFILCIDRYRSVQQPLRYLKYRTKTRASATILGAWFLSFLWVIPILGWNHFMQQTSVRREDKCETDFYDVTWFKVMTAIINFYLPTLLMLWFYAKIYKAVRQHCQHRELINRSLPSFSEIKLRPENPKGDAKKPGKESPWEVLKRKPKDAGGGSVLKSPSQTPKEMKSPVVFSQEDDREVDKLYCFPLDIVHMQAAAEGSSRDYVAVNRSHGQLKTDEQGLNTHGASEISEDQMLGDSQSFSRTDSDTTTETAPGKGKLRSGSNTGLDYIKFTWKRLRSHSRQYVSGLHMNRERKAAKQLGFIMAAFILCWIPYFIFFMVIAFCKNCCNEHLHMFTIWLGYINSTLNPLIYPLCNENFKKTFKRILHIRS

SMILES | inhibition (INH) (Cytochrome P450 3A4) | Ki (Histamine H3 receptor [1]) | Ki (Histamine H1 receptor) | further results
O=C(c1ccc(OCCCc2cnc[nH]2)cc1)C1CC1 [CIPROXIFAN] | Active | – | – | –
O=C(c1ccc(Cl)cc1)c1ccc(OCCCN2CCN(c3ccncc3)CC2)cc1 | Active | 23 nM | 6860 nM | –
CN(C)[C@@H]1CCN(CCCOc2ccc(-c3ccc(C#N)cc3)cc2F)C1 | – | – | – | Ki (Histamine H3 receptor [2]): 3.98 nM
Cc1c(C(=O)NN2CCCCC2)nn(-c2ccc(Cl)cc2Cl)c1-c1ccc(Cl)cc1 [RIMONABANT] | – | – | – | Activity (Rattus norvegicus [3]): Active; Activity [4]: Non-Toxic; Activity (Rattus norvegicus [5]): Active; Activity (Rattus norvegicus [6]): Active
O=C(c1ccc(F)cc1)c1ccc(OCCCN2CCN(c3ccncc3)CC2)cc1 | Active | 5.84 nM | > 10000 nM | –
Clc1ccc(CCCOCCCN2CCCCC2)cc1 [PITOLISANT] | – | – | – | Ki (Histamine H4 receptor): > 100000 nM
N#Cc1ccc(-c2ccc(OCCCN3CCN(c4ccncc4)CC3)cc2)cc1 | Active | 7.86 nM | 2900 nM | Activity (Rattus norvegicus [3]): Active; Activity (Rattus norvegicus [7]): Active; Activity (Rattus norvegicus [8]): Active; Activity [9]: Non-Toxic; Activity (Rattus norvegicus [10]): Active; Activity (Rattus norvegicus [11]): Active; Activity (Rattus norvegicus [12]): inactive; Activity (Rattus norvegicus [13]): Active; Activity (Rattus norvegicus [14]): Active; Activity (Rattus norvegicus [15]): Active; Activity (Rattus norvegicus [16]): Active; Activity (Rattus norvegicus [17]): Active; Activity (Rattus norvegicus [6]): Active
CN(C)[C@@H]1CCN(CCCOc2ccc(-c3ccc(C#N)cc3)cc2)C1 | – | – | – | Ki (Histamine H3 receptor [2]): 2 nM
O=C(c1ccc(OCCCN2CCC(c3ccncc3)CC2)cc1)C1CC1 | Active | 7.7 nM | > 10000 nM | –
O=C(c1ccc(OCCCN2CCN(c3ccncc3)CC2)cc1)C1CC1 | Active | 3.17 nM | > 10000 nM | –

Continued, in another order:

inhibition (INH) (Cytochrome P450 3A4) | Ki (Histamine H3 receptor [1]) | Ki (Histamine H1 receptor) | SMILES | further results
Active | 60.7 nM | 3690 nM | Fc1ccc(-c2ccc(OCCCN3CCN(c4ccncc4)CC3)cc2)cc1 | –
Active | 8.43 nM | 4220 nM | c1ccc(Nc2ccc(OCCCN3CCN(c4ccncc4)CC3)cc2)cc1 | –
Active | 67.2 nM | 7420 nM | c1ccc2cc(OCCCN3CCN(c4ccncc4)CC3)ccc2c1 | –
Active | 109 nM | 1990 nM | Clc1cccc(-c2ccc(OCCCN3CCN(c4ccncc4)CC3)cc2)c1 | –
Active | 140 nM | 4090 nM | Clc1ccc(-c2ccc(OCCCN3CCN(c4ccncc4)CC3)cc2)cc1 | –
Active | 17.6 nM | 4240 nM | c1ccc(Cc2ccc(OCCCN3CCN(c4ccncc4)CC3)cc2)cc1 | –
Active | 20.3 nM | 4570 nM | c1ccc(Oc2ccc(OCCCN3CCN(c4ccncc4)CC3)cc2)cc1 | –
